We go through twelve molecules from patent publication US11919901B2 (Syndax Pharmaceuticals, Inc., priority 2021, dated 2024).

One series deals with hERG (Homo sapiens (Human), UniProt Q12809). The series can be described thus: Patch clamp assay (hERG tail currents, whole-cell). The format is cell-based. As to conditions: hERG transfected HEK 293 cells; for hERG % Remaining 30 μM: 30 μM compound; for hERG % Remaining 10 μM: 10 μM compound.
The next series deals with Menin-MLL (Homo sapiens (Human), UniProt O00255). The series can be described thus: Determination of binding constants (Ki) to Menin-MLL (HTRF). As to conditions: HTRF, 0.25 nM H-FL-Menin, 3.2 nM FITC-MLL-4-43, 24 hr incubation; for Ki: read-out: Menin-MLL Ki HTRF Assay: Ki. On the technique in general: In TR-FRET formats the signal depends on donor and acceptor labels being close together.
Chain of Menin-MLL (O00255 whole entry): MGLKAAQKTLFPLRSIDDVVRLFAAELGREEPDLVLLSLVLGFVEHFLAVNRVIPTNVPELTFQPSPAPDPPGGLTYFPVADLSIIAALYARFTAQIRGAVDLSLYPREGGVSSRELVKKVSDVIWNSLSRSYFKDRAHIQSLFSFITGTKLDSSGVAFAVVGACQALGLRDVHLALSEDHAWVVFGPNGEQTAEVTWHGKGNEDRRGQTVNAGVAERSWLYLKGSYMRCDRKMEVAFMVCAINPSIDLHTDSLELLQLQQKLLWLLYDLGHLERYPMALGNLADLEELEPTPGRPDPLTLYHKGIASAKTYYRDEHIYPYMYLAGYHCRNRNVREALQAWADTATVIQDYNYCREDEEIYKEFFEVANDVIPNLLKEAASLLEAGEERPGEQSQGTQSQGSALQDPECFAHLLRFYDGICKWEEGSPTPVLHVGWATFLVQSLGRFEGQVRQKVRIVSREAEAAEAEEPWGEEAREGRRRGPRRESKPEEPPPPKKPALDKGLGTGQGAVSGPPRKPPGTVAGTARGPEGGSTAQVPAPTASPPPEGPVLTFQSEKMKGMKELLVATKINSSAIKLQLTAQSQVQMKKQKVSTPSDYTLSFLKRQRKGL

Chain of hERG (Q12809 whole entry): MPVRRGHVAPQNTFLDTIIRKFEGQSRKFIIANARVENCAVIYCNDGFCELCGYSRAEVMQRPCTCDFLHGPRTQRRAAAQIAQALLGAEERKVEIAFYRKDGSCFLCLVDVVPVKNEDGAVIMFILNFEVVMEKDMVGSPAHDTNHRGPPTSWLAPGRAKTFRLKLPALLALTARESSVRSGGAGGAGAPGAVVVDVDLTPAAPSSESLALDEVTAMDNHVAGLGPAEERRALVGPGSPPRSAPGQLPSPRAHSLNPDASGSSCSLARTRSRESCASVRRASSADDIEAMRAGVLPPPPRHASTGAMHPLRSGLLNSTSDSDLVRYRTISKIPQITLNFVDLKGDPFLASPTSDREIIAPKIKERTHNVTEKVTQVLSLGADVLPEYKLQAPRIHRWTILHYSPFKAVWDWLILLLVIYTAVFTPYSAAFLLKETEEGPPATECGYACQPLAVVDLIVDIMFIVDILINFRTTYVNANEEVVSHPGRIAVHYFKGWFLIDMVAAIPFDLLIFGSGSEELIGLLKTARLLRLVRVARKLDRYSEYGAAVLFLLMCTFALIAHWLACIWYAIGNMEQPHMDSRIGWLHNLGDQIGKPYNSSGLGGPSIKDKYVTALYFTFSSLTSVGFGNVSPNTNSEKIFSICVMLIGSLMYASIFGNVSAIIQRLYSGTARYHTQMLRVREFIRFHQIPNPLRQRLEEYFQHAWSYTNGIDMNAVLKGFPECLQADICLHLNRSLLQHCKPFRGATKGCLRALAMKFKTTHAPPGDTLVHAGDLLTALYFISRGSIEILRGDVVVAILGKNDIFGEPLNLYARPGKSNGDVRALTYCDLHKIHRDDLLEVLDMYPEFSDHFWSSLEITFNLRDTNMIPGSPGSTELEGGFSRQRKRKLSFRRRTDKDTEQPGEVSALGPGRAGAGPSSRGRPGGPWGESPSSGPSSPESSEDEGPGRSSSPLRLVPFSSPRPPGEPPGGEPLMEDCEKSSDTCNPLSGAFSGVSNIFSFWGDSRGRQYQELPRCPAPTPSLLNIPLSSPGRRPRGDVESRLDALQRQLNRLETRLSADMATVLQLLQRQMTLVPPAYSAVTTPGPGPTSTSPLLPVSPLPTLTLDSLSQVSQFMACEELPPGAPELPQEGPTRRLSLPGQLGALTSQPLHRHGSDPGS
Method for hERG: The 35 mm culture dishes upon which cells were seeded at a density allowing single cells to be recorded were placed on the dish holder of the microscope and continuously perfused (at approximately 1 mL/min) with the bath solution described in section 4.6. All solutions applied to cells including the pipette solution were maintained at room temperature (19° C. to 30° C.). After formation of a Gigaohm seal between the patch electrodes and individual hERG stably transfected HEK 293 cells (pipette resistance range: 2.0 MΩ2 to 7.0 MΩ; seal resistance range: >1GΩ) the cell membrane across the pipette tip was ruptured to assure electrical access to the cell interior (whole-cell patch-configuration). In case the quality of the seal was poor, the process of seal formation was repeated with a different cell and a new pipette. As soon as a stable seal could be established, hERG outward tail currents were measured upon depolarization of the cell membrane to +20 mV for 2s (activation of channels) from a holding potential of −80 mV and upon subsequent repolarization to −40 mV for 3 s. This voltage protocol (as shown below) was run at least 10 times at intervals of 10 s. If current density was judged to be too low for measurement, another cell was recorded.
During wash-in of the test item the voltage protocol indicated above was run continuously again at 10 s intervals until the steady-state level of block was reached.
The IC50 was determined by fitting the dose response curve with a 2-parameter logistic function (amax=100%).

Consider `CC(C)N(C(=O)c1cc(F)ccc1Oc1cncnc1N1CC2(CCN(C[C@@H]3CC[C@@H](NS(=O)(=O)c4ccn(C)n4)CO3)CC2)C1)C(C)C` [Compound 87, 5-Fluoro-N,N-diisopropyl-2-((4-(7-(((2S,5R)-5-((1-methyl-1H-pyrazole)-3-sulfonamido)tetrahydro-2H-pyran-2-yl)methyl)-2,7-diazaspiro[3.5]nonan-2-yl)pyrimidin-5-yl)oxy)benzamide], for which the “hERG % Remaining 30 μM” value at hERG is reported as “+++ (“+++” means ≥66%)”. Further, the Ki – broadly, a measure of affinity in units of concentration, obtained from inhibition or displacement – on Menin-MLL is under 1 nM.

`CC(C)N(C(=O)c1cc(F)ccc1Oc1cncnc1N1CC2(CCN(C[C@@H]3CC[C@@H](NS(=O)(=O)N4CCC4)CO3)CC2)C1)C(C)C` [Compound 88, 2-((4-(7-(((2S,5R)-5-(Azetidine-1-sulfonamido)tetrahydro-2H-pyran-2-yl)methyl)-2,7-diazaspiro[3.5]nonan-2-yl)pyrimidin-5-yl)oxy)-5-fluoro-N,N-diisopropylbenzamide]: the “hERG % Remaining 30 μM” value on hERG is on record as “+++ (“+++” means ≥66%)”. Besides, the Ki at Menin-MLL was under 1 nM.

As for `CC(C)N(C(=O)c1cc(F)ccc1Oc1cncnc1N1CC2(CCN(C[C@@H]3CC[C@@H](NS(=O)(=O)N(C)C(C)C)CO3)CC2)C1)C(C)C` [Compound 89, 5-Fluoro-N,N-diisopropyl-2-((4-(7-(((2S,5R)-5-((N-isopropyl-N-methylsulfamoyl)amino)tetrahydro-2H-pyran-2-yl)methyl)-2,7-diazaspiro[3.5]nonan-2-yl)pyrimidin-5-yl)oxy)benzamide], the “hERG % Remaining 30 μM” value on hERG was “++ (“++” means ≥33% and <66%)”. The Ki on Menin-MLL is under 1 nM.

As for `CC(C)N(C(=O)c1cc(F)ccc1Oc1cncnc1N1CC2(CCN(C[C@@H]3CC[C@@H](NS(N)(=O)=O)CO3)CC2)C1)C(C)C` [Compound 90, 5-Fluoro-N,N-diisopropyl-2-((4-(7-(((2S,5R)-5-(sulfamoylamino)tetrahydro-2H-pyran-2-yl)methyl)-2,7-diazaspiro[3.5]nonan-2-yl)pyrimidin-5-yl)oxy)benzamide], on hERG, the “hERG % Remaining 10 μM” value was “+++ (“+++” means ≥66%)” and the “hERG % Remaining 30 μM” value is reported as “+++ (“+++” means ≥66%)”. In addition, the Ki at Menin-MLL is under 1 nM.

Turning to `Cc1nc(S(=O)(=O)N[C@@H]2CC[C@@H](CN3CCC4(CC3)CN(c3ncncc3Oc3ccc(F)cc3C(=O)N(C(C)C)C(C)C)C4)OC2)co1` [Compound 91, 5-Fluoro-N,N-diisopropyl-2-((4-(7-(((2S,5R)-5-((2-methyloxazole)-4-sulfonamido)tetrahydro-2H-pyran-2-yl)methyl)-2,7-diazaspiro[3.5]nonan-2-yl)pyrimidin-5-yl)oxy)benzamide], the “hERG % Remaining 30 μM” value on hERG was “++ (“++” means ≥33% and <66%)”. Further, on Menin-MLL, the Ki is under 1 nM.

Regarding `CC(C)N(C(=O)c1cc(F)ccc1Oc1cncnc1N1CC2(CCN(C[C@@H]3CC[C@@H](NS(=O)(=O)N(C)C)CO3)CC2)C1)C1CC1` [Compound 93, N-Cyclopropyl-2-((4-(7-(((2S,5R)-5-((N,N-dimethylsulfamoyl)amino)tetrahydro-2H-pyran-2-yl)methyl)-2,7-diazaspiro[3.5]nonan-2-yl)pyrimidin-5-yl)oxy)-5-fluoro-N-isopropylbenzamide], the “hERG % Remaining 1 μM” value at hERG (1 μM compound) was “+++ (“+++” means ≥66%)”. The “hERG % Remaining 3 μM” value at hERG (3 μM compound) is “+++ (“+++” means ≥66%)”. For the same molecule, at hERG, the “hERG % Remaining 10 μM” value is on record as “+++ (“+++” means ≥66%)”; the “hERG % Remaining 30 μM” value was “++ (“++” means ≥33% and <66%)”; the IC50 – broadly, the concentration needed to halve the response being measured – was at least 50000 nM. Moreover, the “hERG % Remaining 100 μM” value on hERG (100 μM compound) is recorded as “+ (“+” means <33%)”. In addition, on Menin-MLL, the EC50 – broadly, the concentration giving half of the maximal effect – was under 50 nM and the Ki was under 1 nM.

Consider `CC(C)N(CC(F)F)C(=O)c1cc(F)ccc1Oc1cncnc1N1CC2(CCN(C[C@@H]3CC[C@@H](NS(=O)(=O)N4CCOCC4)CO3)CC2)C1` [Compound 94, N-(2,2-Difluoroethyl)-5-fluoro-N-isopropyl-2-((4-(7-(((2S,5R)-5-(morpholine-4-sulfonamido)tetrahydro-2H-pyran-2-yl)methyl)-2,7-diazaspiro[3.5]nonan-2-yl)pyrimidin-5-yl)oxy)benzamide], for which, on hERG, the “hERG % Remaining 10 μM” value is recorded as “+++ (“+++” means ≥66%)”; the “hERG % Remaining 30 μM” value is “++ (“++” means ≥33% and <66%)”. On Menin-MLL, the EC50 is under 50 nM and the Ki is under 1 nM.

In the case of `CC(C)N(CC(F)F)C(=O)c1cc(F)ccc1Oc1cncnc1N1CC2(CCN(C[C@@H]3CC[C@@H](NS(=O)(=O)N(C)C)CO3)CC2)C1` [Compound 95, N-(2,2-Difluoroethyl)-2-((4-(7-(((2S,5R)-5-((N,N-dimethylsulfamoyl)amino)tetrahydro-2H-pyran-2-yl)methyl)-2,7-diazaspiro[3.5]nonan-2-yl)pyrimidin-5-yl)oxy)-5-fluoro-N-isopropylbenzamide], at hERG, the “hERG % Remaining 10 μM” value was “+++ (“+++” means ≥66%)”; the “hERG % Remaining 30 μM” value was “++ (“++” means ≥33% and <66%)”; the 50% inhibitory concentration (IC50) is under 25000 nM. Further, on Menin-MLL, the EC50 was under 50 nM and the Ki is under 1 nM.

With `CCN(CC)S(=O)(=O)N[C@@H]1CC[C@@H](CN2CCC3(CC2)CN(c2ncncc2Oc2ccc(F)cc2C(=O)N(CC(F)F)C(C)C)C3)OC1` [Compound 97, 2-((4-(7-(((2S,5R)-5-((N,N-Diethylsulfamoyl)amino)tetrahydro-2H-pyran-2-yl)methyl)-2,7-diazaspiro[3.5]nonan-2-yl)pyrimidin-5-yl)oxy)-N-(2,2-difluoroethyl)-5-fluoro-N-isopropylbenzamide], on hERG, the “hERG % Remaining 10 μM” value is “++ (“++” means ≥33% and <66%)”; the “hERG % Remaining 30 μM” value is listed as “+ (“+” means <33%)”. At Menin-MLL, the EC50 was under 50 nM and the inhibition constant Ki was under 1 nM.

As to `CC(C)N(CC(F)F)C(=O)c1cc(F)ccc1Oc1cncnc1N1CC2(CCN(C[C@@H]3CC[C@@H](NS(=O)(=O)N4CCC4)CO3)CC2)C1` [Compound 99, 2-((4-(7-(((2S,5R)-5-(Azetidine-1-sulfonamido)tetrahydro-2H-pyran-2-yl)methyl)-2,7-diazaspiro[3.5]nonan-2-yl)pyrimidin-5-yl)oxy)-N-(2,2-difluoroethyl)-5-fluoro-N-isopropylbenzamide], on hERG, the “hERG % Remaining 10 μM” value is recorded as “+++ (“+++” means ≥66%)”; the “hERG % Remaining 30 μM” value was “++ (“++” means ≥33% and <66%)”. The Ki at Menin-MLL is under 1 nM.

Regarding `CC(C)N(CC(F)F)C(=O)c1cc(F)ccc1Oc1cncnc1N1CC2(CCN(C[C@@H]3CC[C@@H](NS(=O)(=O)c4cnn(C)c4)CO3)CC2)C1` [Compound 100, N-(2,2-Difluoroethyl)-5-fluoro-N-isopropyl-2-((4-(7-(((2S,5R)-5-((1-methyl-1H-pyrazole)-4-sulfonamido)tetrahydro-2H-pyran-2-yl)methyl)-2,7-diazaspiro[3.5]nonan-2-yl)pyrimidin-5-yl)oxy)benzamide], at hERG, the “hERG % Remaining 10 μM” value is “+++ (“+++” means ≥66%)”, the “hERG % Remaining 30 μM” value was “+++ (“+++” means ≥66%)” and the IC50 was at least 50000 nM. For the same molecule, at Menin-MLL, the Ki is under 1 nM.

For the molecule `CC(C)N(CC(F)F)C(=O)c1cc(F)ccc1Oc1cncnc1N1CC2(CCN(C[C@@H]3CC[C@@H](NS(=O)(=O)N(C)C(C)C)CO3)CC2)C1` [Compound 101, N-(2,2-Difluoroethyl)-5-fluoro-N-isopropyl-2-((4-(7-(((2S,5R)-5-((N-isopropyl-N-methylsulfamoyl)amino)tetrahydro-2H-pyran-2-yl)methyl)-2,7-diazaspiro[3.5]nonan-2-yl)pyrimidin-5-yl)oxy)benzamide], at hERG, the “hERG % Remaining 30 μM” value is on record as “+ (“+” means <33%)”. Further, the Ki on Menin-MLL is under 1 nM.
